Results taken from patent publication US20170320870A1 (Medical Research Council Technology, priority 2009, published 2017).

Target: T1, LRRK2 wild type (recombinant human, catalytic domain amino acids 970-2527, GST-tagged) (Homo sapiens, UniProt Q5S007)
T1 construct: The wild type used was recombinant human, catalytic domain (amino acids 970-2527) GST-tagged, expressed in insect cells; GST; purchased Invitrogen Corporation PV4873; host or cells: insect cells
Test: LRRK2 wild type protein kinase assay ([γ-33P] ATP, peptide substrate […]), IC50
Format: biochemical
Details: LRRK2 (variant not given); read-out: Potency score, LRRK2 IC50
How it was run: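 Insect-cell-expressed enzyme (~5 nM), no activation, incubated 180 min at ~21 °C in 50 mM Tris-HCl pH 7.5, 0.1 mM EGTA, 1 mM DTT, 10 mM MgCl2 with 100 μM peptide substrate and [γ-33P]ATP. Reaction stopped with orthophosphoric acid, captured on P81 filters and counted; IC50 from 10 concentrations in duplicate.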

T1 sequence (Q5S007 970-2527): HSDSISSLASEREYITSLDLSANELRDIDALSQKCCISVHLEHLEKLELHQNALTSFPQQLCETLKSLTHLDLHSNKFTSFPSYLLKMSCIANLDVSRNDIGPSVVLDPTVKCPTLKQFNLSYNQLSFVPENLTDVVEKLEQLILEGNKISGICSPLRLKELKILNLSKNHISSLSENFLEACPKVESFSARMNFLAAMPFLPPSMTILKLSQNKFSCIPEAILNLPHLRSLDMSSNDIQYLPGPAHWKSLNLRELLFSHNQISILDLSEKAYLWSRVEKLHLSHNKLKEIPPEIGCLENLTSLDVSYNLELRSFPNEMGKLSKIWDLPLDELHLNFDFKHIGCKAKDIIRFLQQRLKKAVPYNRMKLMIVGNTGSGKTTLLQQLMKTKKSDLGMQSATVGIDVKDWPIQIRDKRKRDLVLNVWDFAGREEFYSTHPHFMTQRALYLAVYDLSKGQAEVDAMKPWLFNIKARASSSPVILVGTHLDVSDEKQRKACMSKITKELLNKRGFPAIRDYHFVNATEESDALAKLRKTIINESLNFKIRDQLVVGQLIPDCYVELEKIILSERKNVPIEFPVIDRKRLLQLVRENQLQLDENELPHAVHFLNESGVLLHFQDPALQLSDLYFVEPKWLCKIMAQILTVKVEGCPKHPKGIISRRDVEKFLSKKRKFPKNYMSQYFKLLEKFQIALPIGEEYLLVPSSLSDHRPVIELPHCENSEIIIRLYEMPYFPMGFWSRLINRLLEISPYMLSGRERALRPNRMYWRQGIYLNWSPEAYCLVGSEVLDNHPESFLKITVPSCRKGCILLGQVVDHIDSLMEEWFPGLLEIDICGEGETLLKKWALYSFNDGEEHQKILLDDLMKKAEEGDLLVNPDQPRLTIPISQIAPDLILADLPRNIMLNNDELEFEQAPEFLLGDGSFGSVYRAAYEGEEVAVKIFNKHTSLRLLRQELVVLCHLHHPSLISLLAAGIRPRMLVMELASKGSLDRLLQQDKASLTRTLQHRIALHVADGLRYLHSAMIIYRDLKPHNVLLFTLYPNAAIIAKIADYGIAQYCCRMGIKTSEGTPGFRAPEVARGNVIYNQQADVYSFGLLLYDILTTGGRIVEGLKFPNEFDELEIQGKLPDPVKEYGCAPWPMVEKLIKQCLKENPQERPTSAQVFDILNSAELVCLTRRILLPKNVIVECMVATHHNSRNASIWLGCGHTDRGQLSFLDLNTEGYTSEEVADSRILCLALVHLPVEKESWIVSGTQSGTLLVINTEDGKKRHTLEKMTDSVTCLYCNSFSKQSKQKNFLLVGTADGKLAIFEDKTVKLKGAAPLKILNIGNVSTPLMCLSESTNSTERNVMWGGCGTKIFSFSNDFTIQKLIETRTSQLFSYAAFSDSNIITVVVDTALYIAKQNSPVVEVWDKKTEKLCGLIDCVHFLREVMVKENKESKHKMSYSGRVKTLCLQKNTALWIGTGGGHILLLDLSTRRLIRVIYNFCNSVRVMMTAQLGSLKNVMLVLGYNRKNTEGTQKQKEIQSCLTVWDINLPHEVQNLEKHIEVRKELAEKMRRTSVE

Row | IC50 [nM] | Compound
1 | 100 to 1000 | Cn1ncnc1C1CCCN(C(=O)CCc2n[nH]c3ccnc(NC4CCCCC4)c23)C1 (centres unmarked) [Example 239, 3-(4-Cyclohexylamino-1H-pyrazolo[4,3-c]pyridin-3-yl)-1-[3-(2-methyl-2H-1,2,4-triazol-3-yl)-piperidin-1-yl]-propan-1-one]
2 | 100 to 1000 | CCN(CC)CC1CCCN(C(=O)CCc2n[nH]c3ccnc(NC4CCCCC4)c23)C1 (centres unmarked) [Example 240, 3-(4-Cyclohexyl-amino-1H-pyrazolo[4,3-c]pyridin-3-yl)-1-(3-diethylaminomethyl-piperidin-1-yl)-propan-1-one]
3 | < 100 | CC1CN(C(=O)CCc2n[nH]c3ccnc(NC4CCCCC4)c23)C1 [Example 241, 3-(4-Cyclohexyl-amino-1H-pyrazolo [4,3-c]pyridin-3-yl)-1-(3-methyl-azetidin-1-yl)-propan-1-one]
4 | 100 to 1000 | O=C(CCc1n[nH]c2ccnc(NC3CCCCC3)c12)N1CC(c2ccccc2)C1 [Example 242, 3-(4-Cyclohexylamino-1H-pyrazolo[4,3-c]pyridin-3-yl)-1-(3-phenyl-azetidin-1-yl)-propan-1-one]
5 | < 100 | C[C@@H]1CCCN(C(=O)CCc2n[nH]c3ccnc(NC4CCCCC4)c23)C1 [Example 243, 3-(4-Cyclohexylamino-1H-pyrazolo[4,3-c]pyridin-3-yl)-1-((R)-3-methyl-piperidin-1-yl)-propan-1-one]
6 | 100 to 1000 | CC1CN(C(=O)CCc2n[nH]c3ccnc(NC4CCCCC4)c23)CCN1C (centres unmarked) [Example 244, 3-(4-Cyclohexylamino-1H-pyrazolo [4,3-c]pyridin-3-yl)-1-(3,4-dimethyl-piperazin-1-yl)-propan-1-one]
7 | 100 to 1000 | CN1CCN(C(=O)CCc2n[nH]c3ccnc(NC4CCCCC4)c23)CC1c1ccccc1 (centres unmarked) [Example 245, 3-(4-Cyclohexylamino-1H-pyrazolo[4,3-c]pyridin-3-yl)-1-(4-methyl-3-phenyl-piperazin-1-yl)-propan-1-one]
8 | < 100 | C[C@@H]1CCN(C(=O)CCc2n[nH]c3ccnc(NC4CCCCC4)c23)C1 [Example 246, 3-(4-Cyclohexylamino-1H-pyrazolo[4,3-c]pyridin-3-yl)-1-((R)-3-methyl-pyrrolidin-1-yl)-propan-1-one]
9 | < 100 | CC1CN(C(=O)c2ccc(CCc3n[nH]c4ccnc(NC5CCCCC5)c34)cc2)CCN1C (centres unmarked) [Example 247, {4-[2-(4-Cyclohexylamino-1H-pyrazolo[4,3-c]pyridin-3-yl)-ethyl]-phenyl}-(3,4-dimethyl-piperazin-1-yl)-methanone]
10 | < 100 | O=C(c1ccc(CCc2n[nH]c3ccnc(NC4CCCCC4)c23)cc1)N1CC[C@H](c2cccnc2)C1 [Example 248, {4-[2-(4-Cyclohexylamino-1H-pyrazolo[4,3-c]pyridin-3-yl)-ethyl]-phenyl}-((R)-3-pyridin-3-yl-pyrrolidin-1-yl)-methanone]
11 | < 100 | CC(C)CN(C)C(=O)c1ccc(CCc2n[nH]c3ccnc(NC4CCCCC4)c23)cc1 [Example 249, 4-[2-(4-Cyclohexylamino-1H-pyrazolo[4,3-c]pyridin-3-yl)-ethyl]-N-isobutyl-N-methyl-benzamide]
12 | < 100 | O=C(NCc1ccco1)c1ccc(CCc2n[nH]c3ccnc(NC4CCCCC4)c23)cc1 [Example 250, 4-[2-(4-Cyclohexylamino-1H-pyrazolo[4,3-c]pyridin-3-yl)-ethyl]-N-furan-2-ylmethyl-benzamide]
13 | < 100 | CC1CN(C(=O)c2ccc(CCc3n[nH]c4ccnc(NC5CCCCC5)c34)cc2)C1 [Example 251, {4-[2-(4-Cyclohexylamino-1H-pyrazolo[4,3-c]pyridin-3-yl)-ethyl]-phenyl}-(3-methyl-azetidin-1-yl)-methanone]
14 | 100 to 1000 | Cn1nccc1NC(=O)c1ccc(CCc2n[nH]c3ccnc(NC4CCCCC4)c23)cc1 [Example 252, 4-[2-(4-Cyclohexylamino-1H-pyrazolo[4,3-c]pyridin-3-yl)-ethyl]-N-(2-methyl-2H-pyrazol-3-yl)-benzamide]
15 | < 100 | O=C(c1ccc(CCc2n[nH]c3ccnc(NC4CCCCC4)c23)cc1)N1CCOCC1 [Example 253, {4-[2-(4-Cyclohexylamino-1H-pyrazolo[4,3-c]pyridin-3-yl)-ethyl]-phenyl}-morpholin-4-yl-methanone]
16 | < 100 | O=C(Nc1ccc2nccnc2c1)c1ccc(CCc2n[nH]c3ccnc(NC4CCCCC4)c23)cc1 [Example 254, 4-[2-(4-Cyclohexylamino-1H-pyrazolo[4,3-c]pyridin-3-yl)-ethyl]-N-quinoxalin-6-yl-benzamide]
17 | < 100 | CC(=O)Nc1cccc(NC(=O)c2ccc(CCc3n[nH]c4ccnc(NC5CCCCC5)c34)cc2)c1 [Example 255, N-(3-Acetylamino-phenyl)-4-[2-(4-cyclohexylamino-1H-pyrazolo[4,3-c]pyridin-3-yl)-ethyl]-benzamide]
18 | < 100 | O=C(Nc1ccncc1)c1ccc(CCc2n[nH]c3ccnc(NC4CCCCC4)c23)cc1 [Example 256, 4-[2-(4-Cyclohexylamino-1H-pyrazolo[4,3-c]pyridin-3-yl)-ethyl]-N-pyridin-4-yl-benzamide]

Row | IC50 [nM] | Compound
19 | 1000 to 10000 | O=C(CCc1n[nH]c2ccnc(O)c12)N1CCC[C@H](c2ccccc2)C1 [Example 257, 3-(4-Hydroxy-1H-pyrazolo[4,3-c]pyridin-3-yl)-1-((R)-3-phenyl-piperidin-1-yl)-propan-1-one]
20 | < 100 | COc1nccc2[nH]nc(/C=C/C(=O)N3CCC[C@@H](C)C3)c12 [Example 259, (E)-3-(4-Methoxy-1H-pyrazolo[4,3-c]pyridin-3-yl)-1-((R)-3-methyl-piperidin-1-yl)-propenone]
21 | 100 to 1000 | COc1nccc2[nH]nc(CCC(=O)N3CCC[C@H](c4ccccc4)C3)c12 [Example 260, 3-(4-Methoxy-1H-pyrazolo[4,3-c]pyridin-3-yl)-1-((R)-3-phenyl-piperidin-1-yl)-propan-1-one]
22 | < 100 | O=C(/C=C/c1n[nH]c2ccnc(OC3CCCCC3)c12)N1CCC[C@H](c2ccccc2)C1 [Example 261, (E)-3-(4-Cyclohexyloxy-1H-pyrazolo[4,3-c]pyridin-3-yl)-1-((R)-3-phenyl-piperidin-1-yl)-propenone]
23 | < 100 | CC(=O)Nc1ccc(CCc2n[nH]c3ccnc(NC4CCCCC4)c23)cc1 [Example 262, N-{4-[2-(4-Cyclohexylamino-1H-pyrazolo[4,3-c]pyridin-3-yl)-ethyl]-phenyl}-acetamide]
24 | 100 to 1000 | CC(C)C(=O)Nc1ccc(CCc2n[nH]c3ccnc(NC4CCCCC4)c23)cc1 [Example 263, N-{4-[2-(4-Cyclohexylamino-1H-pyrazolo[4,3-c]pyridin-3-yl)-ethyl]-phenyl}-isobutyramide]
25 | < 100 | CC(=O)Nc1ccc(C(=O)Nc2ccc(CCc3n[nH]c4ccnc(NC5CCCCC5)c34)cc2)cc1 [Example 264, 4-Acetylamino-N-{4-[2-(4-cyclohexylamino-1H-pyrazolo[4,3-c]pyridin-3-yl)-ethyl]-phenyl}-benzamide]
26 | < 100 | O=C(Nc1ccc(CCc2n[nH]c3ccnc(NC4CCCCC4)c23)cc1)c1ccccn1 [Example 265, Pyridine-2-carboxylic acid {4-[2-(4-cyclohexylamino-1H-pyrazolo[4,3-c]pyridin-3-yl)-ethyl]-phenyl}-amide]
27 | < 100 | O=C(Nc1ccc(CCc2n[nH]c3ccnc(NC4CCCCC4)c23)cc1)c1cccnc1 [Example 266, N-{4-[2-(4-Cyclohexylamino-1H-pyrazolo[4,3-c]pyridin-3-yl)-ethyl]-phenyl}-nicotinamide]
28 | < 100 | O=C(Nc1ccc(CCc2n[nH]c3ccnc(NC4CCCCC4)c23)cc1)c1ccncc1 [Example 267, N-{4-[2-(4-Cyclohexylamino-1H-pyrazolo[4,3-c]pyridin-3-yl)-ethyl]-phenyl}-isonicotinamide]
29 | < 100 | O=C(Nc1ccc(CCc2n[nH]c3ccnc(NC4CCCCC4)c23)cc1)c1cocn1 [Example 268, Oxazole-4-carboxylic acid {4-[2-(4-cyclohexylamino-1H-pyrazolo[4,3-c]pyridin-3-yl)-ethyl]-phenyl}-amide]
30 | < 100 | Cn1cnc(C(=O)Nc2ccc(CCc3n[nH]c4ccnc(NC5CCCCC5)c34)cc2)c1 [Example 269, 1-Methyl-1H-imidazole-4-carboxylic acid {4-[2-(4-cyclohexylamino-1H-pyrazolo[4,3-c]pyridin-3-yl)-ethyl]-phenyl}-amide]
31 | < 100 | O=C(Nc1ccc(CCc2n[nH]c3ccnc(NC4CCCCC4)c23)cc1)c1ccc2nccnc2c1 [Example 270, Quinoxaline-6-carboxylic acid {4-[2-(4-cyclohexylamino-1H-pyrazolo[4,3-c]pyridin-3-yl)-ethyl]-phenyl}-amide]
32 | 100 to 1000 | CN1CCC(C(=O)Nc2ccc(CCc3n[nH]c4ccnc(NC5CCCCC5)c34)cc2)CC1 [Example 271, 1-Methyl-piperidine-4-carboxylic acid {4-[2-(4-cyclohexylamino-1H-pyrazolo[4,3-c]pyridin-3-yl)-ethyl]-phenyl}-amide]
33 | < 100 | COCC(=O)Nc1ccc(CCc2n[nH]c3ccnc(NC4CCCCC4)c23)cc1 [Example 272, N-{4-[2-(4-Cyclohexylamino-1H-pyrazolo[4,3-c]pyridin-3-yl)-ethyl]-phenyl}-2-methoxy-acetamide]
34 | < 100 | O=C(COc1ccccc1)Nc1ccc(CCc2n[nH]c3ccnc(NC4CCCCC4)c23)cc1 [Example 273, N-{4-[2-(4-Cyclohexylamino-1H-pyrazolo[4,3-c]pyridin-3-yl)-ethyl]-phenyl}-2-phenoxy-acetamide]
35 | < 100 | O=C(Nc1ccc(CCc2n[nH]c3ccnc(NC4CCCCC4)c23)cc1)C1CC1 [Example 274, Cyclopropanecarboxylic acid {4-[2-(4-cyclohexylamino-1H-pyrazolo[4,3-c]pyridin-3-yl)-ethyl]-phenyl}-amide]
